Values quoted from earlier work in patent US20030054020A1, “Method and composition for reducing sebum secretion in mammals” (priority 2001, published 2003).

Tested on: human sebaceous glands

CC1=C(/C=C/C(C)=C/C=C/C(C)=C\C(=O)O)C(C)(C)CCC1 [13-cis-retinoic acid]
Reduction of the size of human sebaceous glands: up to 90%
